Test results reported in PMC4788153, “Impact of Cytochrome P450 2D6 Function on the Chiral Blood Plasma Pharmacokinetics of 3,4-Methylenedioxymethamphetamine (MDMA) and Its Phase I and II Metabolites in Humans” (PLoS ONE, 2016).
Where a name gives a salt, the structure may show the parent alone. Read-outs that look alike come from different tables or passages of the source.

Experiment: Chiral plasma pharmacokinetics of MDMA and its phase I and II metabolites after controlled MDMA administration
Format: in vivo, human
Settings: for reduction of Cmax by bupropion: metabolite stereoisomers, bupropion pretreatment vs placebo (abstract); for AUC(0-t) / Tmax / Cmax / half-life: human, plasma; for change in AUC24 after bupropion pretreatment / change in Cmax after bupropion pretreatment: bupropion+MDMA vs placebo+MDMA, unsigned = increase
Protocol: Blood plasma samples were analyzed non-stereoselectively as reported previously and reanalyzed for the present report using liquid chromatography-mass spectrometry/mass spectrometry after chiral derivatization with Marfey’s reagent as described previously. The method was fully validated, including selectivity, recovery, matrix effects, bias and imprecision, stability, and limit of quantification.

[1] = both sexes, oral, 125 mg, placebo+MDMA (125 mg), CYP2D6 EM, n=13, plasma, read-out: AUC0-24h R
[2] = both sexes, oral, 125 mg, placebo+MDMA (125 mg), CYP2D6 EM, n=13, plasma, read-out: tmax R
[3] = both sexes, oral, bupropion+MDMA (125 mg), CYP2D6 EM (EM/Bup), n=13, plasma, read-out: AUC0-24h R
[4] = both sexes, oral, bupropion+MDMA (125 mg), CYP2D6 EM (EM/Bup), n=13, plasma, read-out: Cmax R
[5] = both sexes, oral, bupropion+MDMA (125 mg), CYP2D6 EM (EM/Bup), n=13, plasma, read-out: t1/2 R (converted)
[6] = both sexes, oral, bupropion+MDMA (125 mg), CYP2D6 EM (EM/Bup), n=13, plasma, read-out: tmax R
[7] = both sexes, oral, placebo+MDMA (125 mg), CYP2D6 EM, n=13, plasma, read-out: Cmax R
[8] = both sexes, oral, placebo+MDMA (125 mg), CYP2D6 EM, n=13, plasma, read-out: t1/2 R (converted)
[9] = bupropion+MDMA (125 mg), CYP2D6 EM (EM/Bup), n=13, plasma
[10] = placebo+MDMA (125 mg), CYP2D6 EM, n=13, plasma
[11] = placebo+MDMA (125 mg), CYP2D6 IM, n=3, plasma
[12] = placebo-pretreated EMs, same-configuration MDMA enantiomer
[13] = both sexes, oral, 125 mg, placebo+MDMA (125 mg), CYP2D6 EM, n=13, plasma, read-out: AUC0-24h S
[14] = both sexes, oral, 125 mg, placebo+MDMA (125 mg), CYP2D6 EM, n=13, plasma, read-out: Cmax S
[15] = both sexes, oral, 125 mg, placebo+MDMA (125 mg), CYP2D6 EM, n=13, plasma, read-out: t1/2 S (converted)
[16] = both sexes, oral, 125 mg, placebo+MDMA (125 mg), CYP2D6 EM, n=13, plasma, read-out: tmax S
[17] = both sexes, oral, bupropion+MDMA (125 mg), CYP2D6 EM (EM/Bup), n=13, plasma, read-out: AUC0-24h S
[18] = both sexes, oral, bupropion+MDMA (125 mg), CYP2D6 EM (EM/Bup), n=13, plasma, read-out: Cmax S
[19] = both sexes, oral, bupropion+MDMA (125 mg), CYP2D6 EM (EM/Bup), n=13, plasma, read-out: t1/2 S (converted)
[20] = both sexes, oral, bupropion+MDMA (125 mg), CYP2D6 EM (EM/Bup), n=13, plasma, read-out: tmax S
[21] = bupropion-pretreated CYP2D6 EMs
[22] = im, placebo+MDMA (125 mg), CYP2D6 IM, n=3, plasma, read-out: AUC0-24h S
[23] = im, placebo+MDMA (125 mg), CYP2D6 IM, n=3, plasma, read-out: Cmax S
[24] = im, placebo+MDMA (125 mg), CYP2D6 IM, n=3, plasma, read-out: t1/2 S (converted)
[25] = im, placebo+MDMA (125 mg), CYP2D6 IM, n=3, plasma, read-out: tmax S
[26] = bupropion vs placebo pretreatment, CYP2D6 EMs
[27] = bupropion vs placebo pretreatment

CNC(C)Cc1ccc(O)c(OS(=O)(=O)O)c1 (stereo not shown) [DHMA 3-sulfate]
reduction of Cmax by bupropion: approximately 40%

CNC(C)Cc1ccc(OC2OC(C(=O)O)C(O)C(O)C2O)c(OC)c1 (stereo not shown) [HMMA glucuronide]
reduction of Cmax by bupropion: approximately 40%

CN[C@H](C)Cc1ccc(O)c(OS(=O)(=O)O)c1 [R-DHMA 3-sulfate]
metabolite/MDMA ratio, mean constant (after approximately 2 h) (IMs): 0.10
metabolite/MDMA ratio, mean initial (highest, first hour) (IMs): 1.9
AUC(0-t) [1]: 2400 nM·h
Tmax [2]: 2.8 h
AUC(0-t) [3]: 960 nM·h
Cmax [4]: 0.05 µM
half-life [5]: 46.2 h
Tmax [6]: 3.8 h
Cmax [7]: 0.15 µM
half-life [8]: 20.2 h
AUCtotal R [9]: 3.1 (2.1) μmol/l*h-1
change in AUC24 after bupropion pretreatment (CYP2D6 EMs): -61%
change in Cmax after bupropion pretreatment (CYP2D6 EMs): -68%
metabolite/MDMA ratio, mean constant (after approximately 2 h) (bupropion-pretreated EMs): 0.10
metabolite/MDMA ratio, mean initial (highest, first hour) (bupropion-pretreated EMs): 0.4
AUCtotal R [10]: 4.7 (2.5) μmol/l*h-1
AUCtotal R [11]: 2.6 (2.4) μmol/l*h-1
metabolite/MDMA ratio, mean constant (after approximately 2 h) (placebo-pretreated EMs): 0.22
metabolite/MDMA ratio, mean initial (highest, first hour) [12]: 9.9

CNC(C)Cc1ccc(OC2OC(C(=O)O)C(O)C(O)C2O)c(OC)c1 (stereo not shown) [S-HMMA glucuronide]
metabolite/MDMA ratio, mean constant (after approximately 2 h) (IMs): 0.20
metabolite/MDMA ratio, mean initial (highest, first hour) (IMs): 0.30
AUC(0-t) [13]: 5200 nM·h
Cmax [14]: 0.49 µM
half-life [15]: 6.1 h
Tmax [16]: 2.9 h
AUC(0-t) [17]: 1300 nM·h
Cmax [18]: 0.088 µM
half-life [19]: 9 h
Tmax [20]: 4.9 h
AUCtotal S [9]: 1.7 (1.0) μmol/l*h-1
change in AUC24 after bupropion pretreatment (CYP2D6 EMs): -74%
change in Cmax after bupropion pretreatment (CYP2D6 EMs): -82%
tonset (time of first detection), mean [21]: 0.71 h
metabolite/MDMA ratio, mean constant (after approximately 2 h) (bupropion-pretreated EMs): 0.20
metabolite/MDMA ratio, mean initial (highest, first hour) (bupropion-pretreated EMs): 0.10
AUC(0-t) [22]: 1300 nM·h
Cmax [23]: 0.099 µM
half-life [24]: 7.1 h
Tmax [25]: 4 h
AUCtotal S [10]: 5.5 (3.9) μmol/l*h-1
AUCtotal S [11]: 1.5 (0.83) μmol/l*h-1
tonset (time of first detection), mean (placebo-pretreated CYP2D6 EMs): 0.38 h
metabolite/MDMA ratio, mean constant (after approximately 2 h) (placebo-pretreated EMs): 1.3
metabolite/MDMA ratio, mean initial (highest, first hour) [12]: 5.6

CN[C@H](C)Cc1ccc2c(c1)OCO2 [R-MDMA, 3,4-methylenedioxymethamphetamine]
AUC(0-t) [1]: 8700 nM·h
Tmax [2]: 2.9 h
AUC(0-t) [3]: 10900 nM·h
Cmax [4]: 0.75 µM
half-life [5]: 10.8 h
Tmax [6]: 3.3 h
Cmax [7]: 0.69 µM
half-life [8]: 8.2 h
prolongation of t1/2 after bupropion pretreatment [26]: 31%
reduction of Cl/F after bupropion pretreatment [26]: -23%
AUCtotal R [9]: 14.2 (3.7) μmol/l*h-1
CL/F R [9]: 31.3 (8.2) l/h
change in AUC24 after bupropion pretreatment (CYP2D6 EMs): 25%
change in Cmax after bupropion pretreatment (CYP2D6 EMs): 9%
AUCtotal R [10]: 10.4 (3.6) μmol/l*h-1
CL/F R [10]: 40.4 (14.2) l/h
AUCtotal R [11]: 14.5 (4.3) μmol/l*h-1
CL/F R [11]: 29.8 (7.4) l/h

CNC(C)Cc1ccc(OS(=O)(=O)O)c(O)c1 (stereo not shown) [DHMA 4-sulfate]
reduction of Cmax by bupropion: approximately 40%

CNC(C)Cc1ccc(OS(=O)(=O)O)c(OC)c1 (stereo not shown) [HMMA sulfate]
change of R/S ratio for Cmax after bupropion pretreatment [27]: +21%
reduction of Cmax by bupropion: approximately 40%

CNC(C)Cc1ccc(OC2OC(C(=O)O)C(O)C(O)C2O)c(OC)c1 (stereo not shown) [R-HMMA glucuronide]
metabolite/MDMA ratio, mean constant (after approximately 2 h) (IMs): 0.05
metabolite/MDMA ratio, mean initial (highest, first hour) (IMs): 0.05
AUC(0-t) [1]: 3300 nM·h
Tmax [2]: 3.7 h
AUC(0-t) [3]: 960 nM·h
Cmax [4]: 0.049 µM
half-life [5]: 31.7 h
Tmax [6]: 7.6 h
Cmax [7]: 0.21 µM
half-life [8]: 16 h
AUCtotal R [9]: 2.3 (1.5) μmol/l*h-1
change in AUC24 after bupropion pretreatment (CYP2D6 EMs): -71%
change in Cmax after bupropion pretreatment (CYP2D6 EMs): -77%
tonset (time of first detection), mean [21]: 0.73 h
metabolite/MDMA ratio, mean constant (after approximately 2 h) (bupropion-pretreated EMs): 0.05
metabolite/MDMA ratio, mean initial (highest, first hour) (bupropion-pretreated EMs): 0.09
AUCtotal R [10]: 5.5 (4.3) μmol/l*h-1
AUCtotal R [11]: 2.0 (1.7) μmol/l*h-1
tonset (time of first detection), mean (placebo-pretreated CYP2D6 EMs): 0.41 h
metabolite/MDMA ratio, mean constant (after approximately 2 h) (placebo-pretreated EMs): 0.40
metabolite/MDMA ratio, mean initial (highest, first hour) [12]: 1.3

CN[C@H](C)Cc1ccc(OS(=O)(=O)O)c(O)c1 [R-DHMA 4-sulfate]
metabolite/MDMA ratio, mean constant (after approximately 2 h) (IMs): 0.05
metabolite/MDMA ratio, mean initial (highest, first hour) (IMs): 0.94
AUC(0-t) [1]: 1300 nM·h
Tmax [2]: 2 h
AUC(0-t) [3]: 710 nM·h
Cmax [4]: 0.037 µM
half-life [5]: 49.9 h
Tmax [6]: 3.2 h
Cmax [7]: 0.08 µM
half-life [8]: 17.5 h
AUCtotal R [9]: 2.9 (2.2) μmol/l*h-1
change in AUC24 after bupropion pretreatment (CYP2D6 EMs): -43%
change in Cmax after bupropion pretreatment (CYP2D6 EMs): -54%
metabolite/MDMA ratio, mean constant (after approximately 2 h) (bupropion-pretreated EMs): 0.05
metabolite/MDMA ratio, mean initial (highest, first hour) (bupropion-pretreated EMs): 0.89
AUCtotal R [10]: 2.4 (1.7) μmol/l*h-1
AUCtotal R [11]: 1.5 (1.0) μmol/l*h-1
metabolite/MDMA ratio, mean constant (after approximately 2 h) (placebo-pretreated EMs): 0.13
metabolite/MDMA ratio, mean initial (highest, first hour) [12]: 4.9

CN[C@@H](C)Cc1ccc(OS(=O)(=O)O)c(OC)c1 [S-HMMA sulfate]
metabolite/MDMA ratio, mean constant (after approximately 2 h) (IMs): 0.28
metabolite/MDMA ratio, mean initial (highest, first hour) (IMs): 2.3
AUC(0-t) [13]: 4200 nM·h
Cmax [14]: 0.41 µM
half-life [15]: 6.6 h
Tmax [16]: 1.6 h
AUC(0-t) [17]: 1600 nM·h
Cmax [18]: 0.11 µM
half-life [19]: 11.1 h
Tmax [20]: 2.8 h
AUCtotal S [9]: 2.2 (0.75) μmol/l*h-1
change in AUC24 after bupropion pretreatment (CYP2D6 EMs): -61%
change in Cmax after bupropion pretreatment (CYP2D6 EMs): -72%
tonset (time of first detection), mean [21]: 0.56 h
metabolite/MDMA ratio, mean constant (after approximately 2 h) (bupropion-pretreated EMs): 0.21
metabolite/MDMA ratio, mean initial (highest, first hour) (bupropion-pretreated EMs): 0.26
AUC(0-t) [22]: 1700 nM·h
Cmax [23]: 0.14 µM
half-life [24]: 6.9 h
Tmax [25]: 2.5 h
AUCtotal S [10]: 4.6 (1.2) μmol/l*h-1
AUCtotal S [11]: 1.9 (0.34) μmol/l*h-1
tonset (time of first detection), mean (placebo-pretreated CYP2D6 EMs): 0.33 h
metabolite/MDMA ratio, mean constant (after approximately 2 h) (placebo-pretreated EMs): 0.86
metabolite/MDMA ratio, mean initial (highest, first hour) [12]: 17.7

CN[C@H](C)Cc1ccc(OS(=O)(=O)O)c(OC)c1 [R-HMMA sulfate]
metabolite/MDMA ratio, mean constant (after approximately 2 h) (IMs): 0.13
metabolite/MDMA ratio, mean initial (highest, first hour) (IMs): 1.9
AUC(0-t) [1]: 5500 nM·h
Tmax [2]: 2 h
AUC(0-t) [3]: 2100 nM·h
Cmax [4]: 0.14 µM
half-life [5]: 34.4 h
Tmax [6]: 4.2 h
Cmax [7]: 0.37 µM
half-life [8]: 17.5 h
AUCtotal R [9]: 7.1 (4.6) μmol/l*h-1
change in AUC24 after bupropion pretreatment (CYP2D6 EMs): -62%
change in Cmax after bupropion pretreatment (CYP2D6 EMs): -62%
tonset (time of first detection), mean [21]: 0.53 h
metabolite/MDMA ratio, mean constant (after approximately 2 h) (bupropion-pretreated EMs): 0.13
metabolite/MDMA ratio, mean initial (highest, first hour) (bupropion-pretreated EMs): 0.31
AUCtotal R [10]: 9.6 (2.7) μmol/l*h-1
AUCtotal R [11]: 3.4 (1.3) μmol/l*h-1
tonset (time of first detection), mean (placebo-pretreated CYP2D6 EMs): 0.33 h
metabolite/MDMA ratio, mean constant (after approximately 2 h) (placebo-pretreated EMs): 0.54
metabolite/MDMA ratio, mean initial (highest, first hour) [12]: 15.8

CC(N)Cc1ccc2c(c1)OCO2 (stereo not shown) [R-MDA, 3,4-methylenedioxyamphetamine]
AUC(0-t) [1]: 260 nM·h
Tmax [2]: 12.5 h
AUC(0-t) [3]: 190 nM·h
Cmax [4]: 0.01 µM
Tmax [6]: 14.9 h
Cmax [7]: 0.014 µM
change in AUC24 after bupropion pretreatment (CYP2D6 EMs): -26%
change in Cmax after bupropion pretreatment (CYP2D6 EMs): -27%

CC(N)Cc1ccc2c(c1)OCO2 (stereo not shown) [MDA, 3,4-methylenedioxyamphetamine]
change of R/S ratio for AUC24 after bupropion pretreatment [27]: -17%
change of R/S ratio for Cmax after bupropion pretreatment [27]: -19%
